This assay concerns the target USP7 (Homo sapiens, UniProt Q93009). Kind of assay: biochemical.
Sequence of USP7 (Q93009 whole entry): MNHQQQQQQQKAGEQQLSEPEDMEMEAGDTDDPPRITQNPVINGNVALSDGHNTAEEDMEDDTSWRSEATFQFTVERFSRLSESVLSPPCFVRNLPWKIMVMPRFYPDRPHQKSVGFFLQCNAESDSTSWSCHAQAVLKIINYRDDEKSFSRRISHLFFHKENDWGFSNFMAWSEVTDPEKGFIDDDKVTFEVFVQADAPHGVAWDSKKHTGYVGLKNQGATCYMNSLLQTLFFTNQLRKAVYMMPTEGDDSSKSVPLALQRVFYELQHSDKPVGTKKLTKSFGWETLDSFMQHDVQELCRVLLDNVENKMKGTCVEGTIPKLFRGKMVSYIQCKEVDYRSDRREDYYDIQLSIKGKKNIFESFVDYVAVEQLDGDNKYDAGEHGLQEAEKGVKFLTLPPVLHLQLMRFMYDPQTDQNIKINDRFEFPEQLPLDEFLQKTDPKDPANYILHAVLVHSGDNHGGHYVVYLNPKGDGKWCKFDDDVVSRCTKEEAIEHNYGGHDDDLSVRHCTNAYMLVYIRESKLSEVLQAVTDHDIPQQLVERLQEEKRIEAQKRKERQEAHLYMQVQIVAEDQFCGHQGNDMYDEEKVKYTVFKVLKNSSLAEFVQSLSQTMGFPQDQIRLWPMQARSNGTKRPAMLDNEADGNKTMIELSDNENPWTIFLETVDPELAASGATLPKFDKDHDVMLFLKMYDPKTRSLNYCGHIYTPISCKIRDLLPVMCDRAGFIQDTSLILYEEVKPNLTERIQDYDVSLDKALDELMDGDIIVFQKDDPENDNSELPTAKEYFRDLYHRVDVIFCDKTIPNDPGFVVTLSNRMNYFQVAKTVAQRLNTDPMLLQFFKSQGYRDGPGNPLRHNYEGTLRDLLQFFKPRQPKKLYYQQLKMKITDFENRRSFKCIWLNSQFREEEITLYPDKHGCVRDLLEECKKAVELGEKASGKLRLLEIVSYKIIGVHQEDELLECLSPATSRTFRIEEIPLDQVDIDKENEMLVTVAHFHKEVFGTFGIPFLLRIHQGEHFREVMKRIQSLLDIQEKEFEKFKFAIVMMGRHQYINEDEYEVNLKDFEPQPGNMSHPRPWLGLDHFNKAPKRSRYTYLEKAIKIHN
The term IC50 denotes the concentration at which inhibition is half-maximal. Read a high IC50 as a need for much substance. As to `O=C1CCC(=O)N1Cc1cc2nccc(-c3cc(Cl)cc4c3N([C@@H]3CCNC3)CCC4)c2s1` [Example 58, (R)-1-((7-(6-chloro-1-(pyrrolidin-3-yl)-1,2,3,4-tetrahydroquinolin-8-yl)thieno[3,2-b]pyridin-2-yl)methyl)pyrrolidine-2,5-dione], the IC50 fell in the range of 10 to 100 nM.
Next, `CC1(c2cnn(Cc3cc4nccc(-c5cc(Cl)cc6c5N([C@@H]5CN[C@@H](CO)C5)CCC6)c4s3)c(=O)c2)CC1` [Example 188, 2-((7-(6-chloro-1-((3S,5R)-5-(hydroxymethyl)pyrrolidin-3-yl)-1,2,3,4-tetrahydroquinolin-8-yl)thieno[3,2-b]pyridin-2-yl)methyl)-5-(1-methylcyclopropyl)pyridazin-3(2H)-one]: less than 10 nM; `Cc1ccc(=O)n(Cc2cc3nccc(-c4cc(Cl)cc5c4N(C4CNC4)CCC5)c3s2)n1` [Example 17, 2-[[7-[1-(azetidin-3-yl)-6-chloro-3,4-dihydro-2H-quinolin-8-yl]thieno[3,2-b]pyridin-2-yl]methyl]-6-methyl-pyridazin-3-one]: 10 to 100 nM; `CC(C)CN1CC[C@H](N2CCCc3cc(Cl)cc(-c4ccnc5cc(CN6C(=O)CCC6=O)sc45)c32)C1` [Example 102, (S)-1-((7-(6-chloro-1-(1-isobutylpyrrolidin-3-yl)-1,2,3,4-tetrahydroquinolin-8-yl)thieno[3,2-b]pyridin-2-yl)methyl)pyrrolidine-2,5-dione]: 10 to 100 nM.
Under `CC(C)(O)[C@H]1C[C@H](N2CCCc3cc(Cl)cc(-c4ccnc5cc(CN6C(=O)CCC6=O)sc45)c32)CN1` [Example 189, 1-((7-(6-chloro-1-((3S,5R)-5-(2-hydroxypropan-2-yl)pyrrolidin-3-yl)-1,2,3,4-tetrahydroquinolin-8-yl)thieno[3,2-b]pyridin-2-yl)methyl)pyrrolidine-2,5-dione] stands less than 10 nM; under `COCCn1ccc(=O)n(Cc2cc3nccc(-c4cc(Cl)cc5c4N([C@@H]4CCNC4)CCC5)c3s2)c1=O` [Example 100, (R)-3-((7-(6-chloro-1-(pyrrolidin-3-yl)-1,2,3,4-tetrahydroquinolin-8-yl)thieno[3,2-b]pyridin-2-yl)methyl)-1-(2-methoxyethyl)pyrimidine-2,4(1H,3H)-dione], less than 10 nM.
Next, `CCn1c(N(C)C)cc(=O)n(Cc2cc3nccc(-c4cc(C#N)cc5c4N([C@@H]4CNC(C)(C)C4)CCC5)c3s2)c1=O` [Example 126, (S)-8-(2-((4-(dimethylamino)-3-ethyl-2,6-dioxo-2,3-dihydropyrimidin-1(6H)-yl)methyl)thieno[3,2-b]pyridin-7-yl)-1-(5,5-dimethylpyrrolidin-3-yl)-1,2,3,4-tetrahydroquinoline-6-carbonitrile]: less than 10 nM.
`N#Cc1cc2c(c(-c3ccnc4cc(CN5C(=O)CCC5=O)sc34)c1)N(C1CNC1)CCC2` [Example 32, 1-(azetidin-3-yl)-8-[2-[(2,5-dioxopyrrolidin-1-yl)methyl]thieno[3,2-b]pyridin-7-yl]-3,4-dihydro-2H-quinoline-6-carbonitrile]: the IC50 lay in the range of 10 to 100 nM.
Next, `CC(C)(C)c1cnn(Cc2cc3nccc(-c4cc(C#N)cc5c4N([C@H]4CN[C@@H](CO)C4)C[C@H]4C[C@@H]54)c3s2)c(=O)c1` (single isomer, unassigned) [Example 193b]: 10 to 100 nM; `COC(=O)[C@]1(C)C[C@@H](N2CCCc3cc(Cl)cc(-c4ccnc5cc(CN6C(=O)CCC6=O)sc45)c32)CN1` (single isomer, unassigned) [Example 202]: 10 to 100 nM.
Molecule `CC1(C)C2C(=O)N(Cc3cc4nccc(-c5cc(Cl)cc6c5N([C@@H]5CNC7(CCC7)C5)CCO6)c4s3)C(=O)C21` (stereo partly drawn) [Example 172, 3-((7-(7-chloro-4-((S)-5-azaspiro[3.4]octan-7-yl)-3,4-dihydro-2H-benzo[b][1,4]oxazin-5-yl)thieno[3,2-b]pyridin-2-yl)methyl)-6,6-dimethyl-3-azabicyclo[3.1.0]hexane-2,4-dione] yielded a concentration for half-maximal inhibition (IC50) of 10 to 100 nM.
Under `O=C1CCC(=O)N1Cc1cc2nccc(-c3cc(Cl)cc4c3N(C3CN(C5CCC5)C3)CCC4)c2s1` [Example 3, 1-((7-(6-chloro-1-(1-cyclobutylazetidin-3-yl)-1,2,3,4-tetrahydroquinolin-8-yl)thieno[3,2-b]pyridin-2-yl)methyl)pyrrolidine-2,5-dione] stands 10 to 100 nM.
`N#Cc1cc2c(c(-c3ncnc4cc(Cn5c(=O)ccn(CC(F)(F)F)c5=O)sc34)c1)N([C@H]1CCNC1)CCC2` [Example 92, (S)-8-(6-((2,6-dioxo-3-(2,2,2-trifluoroethyl)-2,3-dihydropyrimidin-1(6H)-yl)methyl)thieno[3,2-d]pyrimidin-4-yl)-1-(pyrrolidin-3-yl)-1,2,3,4-tetrahydroquinoline-6-carbonitrile] had an IC50 of less than 10 nM.
Next, `O=c1c2ccccc2ncn1Cc1cc2nccc(-c3cc(Cl)cc4c3N(C3CNC3)CCC4)c2s1` [Example 19, 3-[[7-[1-(azetidin-3-yl)-6-chloro-3,4-dihydro-2H-quinolin-8-yl]thieno[3,2-b]pyridin-2-yl]methyl]quinazolin-4-one]: more than 1000 nM; `O=C1CCC(=O)N1Cc1cc2ncnc(-c3cc(Cl)cc4c3N([C@H]3CNC5(CCC5)C3)C[C@H]3C[C@@H]43)c2s1` [Example 167b, 1-((4-((1aS,7bR)-6-chloro-3-((R)-5-azaspiro[3.4]octan-7-yl)-1a,2,3,7b-tetrahydro-1H-cyclopropa[c]quinolin-4-yl)thieno[3,2-d]pyrimidin-6-yl)methyl)pyrrolidine-2,5-dione]: more than 1000 nM.
Under `O=c1ccn(C2CC(F)(F)C2)c(=O)n1Cc1cc2nccc(-c3cc(Cl)cc4c3N([C@H]3CCNC3)CCC4)c2s1` [Example 75] stands less than 10 nM; under `O=C1CCC(=O)N1Cc1cc2nccc(-c3cc(Cl)cc4c3N(C3CNC3)C[C@@H]3C[C@H]43)c2s1` (single isomer, unassigned) [Example 43a], more than 1000 nM; under `O=c1ccn(CC(F)(F)F)c(=O)n1Cc1cc2nccc(-c3cc(Cl)cc4c3N([C@H]3CCNC3)C[C@H]3C[C@@H]43)c2s1` [Example 114, 3-((7-((1aS,7bR)-6-chloro-3-((S)-pyrrolidin-3-yl)-1a,2,3,7b-tetrahydro-1H-cyclopropa[c]quinolin-4-yl)thieno[3,2-b]pyridin-2-yl)methyl)-1-(2,2,2-trifluoroethyl)pyrimidine-2,4(1H,3H)-dione], less than 10 nM.
Next, `O=C1CCC(=O)N1Cc1cc2nccc(-c3cc(Cl)cc4c3N([C@@H]3CCNC3)CC3CC43)c2s1` (single isomer, unassigned) [Example 113a]: 101 to 1000 nM.
`C[C@H]1CCc2cc(Cl)cc(-c3ccnc4cc(CN5C(=O)CCC5=O)sc34)c2N1[C@H]1CCNC1` (single isomer, unassigned) [Example 44b] returned an IC50 of 101 to 1000 nM.
Next, `O=C1CCC(=O)N1Cc1cc2nccc(-c3cc(Cl)cc4c3N(c3cn[nH]c3)C(=O)CC4)c2s1` [Example 228, 1-((7-(6-chloro-2-oxo-1-(1H-pyrazol-4-yl)-1,2,3,4-tetrahydroquinolin-8-yl)thieno[3,2-b]pyridin-2-yl)methyl)pyrrolidine-2,5-dione]: 101 to 1000 nM.
Next, `C[C@]1(CO)C[C@H](N2CCCc3cc(Cl)cc(-c4ccnc5c(F)c(CN6C(=O)CCC6=O)sc45)c32)CN1` [Example 210, 1-[[7-[6-chloro-1-[(3S,5R)-5-(hydroxymethyl)-5-methyl-pyrrolidin-3-yl]-3,4-dihydro-2H-quinolin-8-yl]-3-fluoro-thieno[3,2-b]pyridin-2-yl]methyl]pyrrolidine-2,5-dione]: less than 10 nM; `CO[C@H]1CNC[C@@H]1N1CCCc2cc(Cl)cc(-c3ccnc4cc(CN5C(=O)CCC5=O)sc34)c21` (single isomer, unassigned) [Example 97a]: 101 to 1000 nM.
Next, `O=C1CCC(=O)N1Cc1cc2nccc(-c3cc(Cl)cc4c3N(C3CCNC3)C[C@@H]3C[C@H]43)c2s1` (single isomer, unassigned) [Example 113c]: 10 to 100 nM; `Oc1ccnn1Cc1cc2nccc(-c3cc(Cl)cc4c3N(C3CNC3)CCC4)c2s1` [Example 37, 2-[[7-[1-(azetidin-3-yl)-6-chloro-3,4-dihydro-2H-quinolin-8-yl]thieno[3,2-b]pyridin-2-yl]methyl]pyrazol-3-ol]: more than 1000 nM; `O=C1CCC(=O)N1Cc1cc2nccc(-c3cc(C(F)(F)F)cc4c3N(C3CNC5(CCC5)C3)CCO4)c2s1` (single isomer, unassigned) [Example 175a]: 101 to 1000 nM.
With `COCCc1cnn(Cc2cc3nccc(-c4cc(Cl)cc5c4N([C@H]4CCNC4)CCC5)c3s2)c(=O)c1` [Example 66, (S)-2-((7-(6-chloro-1-(pyrrolidin-3-yl)-1,2,3,4-tetrahydroquinolin-8-yl)thieno[3,2-b]pyridin-2-yl)methyl)-5-(2-methoxyethyl)pyridazin-3(2H)-one], the IC50 is less than 10 nM.
Next, `O=C1CCC(=O)N1Cc1cc2nccc(-c3cc(Cl)cc4c3N(C3CN(CCO)C3)CCC4)c2s1` [Example 10, 1-[[7-[6-chloro-1-[1-(2-hydroxyethyl)azetidin-3-yl]-3,4-dihydro-2H-quinolin-8-yl]thieno[3,2-b]pyridin-2-yl]methyl]pyrrolidine-2,5-dione]: 10 to 100 nM.
`O=C1CCC(=O)N1Cc1cc2nccc(-c3cc(Cl)cc4c3N([C@H]3CNC[C@@H]3F)CCC4)c2s1` (single isomer, unassigned) [Example 96a]: the IC50 was less than 10 nM.
In turn, `O=c1ccn(CC(F)F)c(=O)n1Cc1cc2nccc(-c3cc(C(F)(F)F)cc4c3N([C@@H]3CCNC3)CCC4)c2s1` (single isomer, unassigned) [Example 80] returned an IC50 of 10 to 100 nM.
Next, `O=c1cc2n(c(=O)n1Cc1cc3nccc(-c4cc(Cl)cc5c4N([C@H]4CCNC4)CCC5)c3s1)CCC2` [Example 106, (S)-2-((7-(6-chloro-1-(pyrrolidin-3-yl)-1,2,3,4-tetrahydroquinolin-8-yl)thieno[3,2-b]pyridin-2-yl)methyl)-6,7-dihydropyrrolo[1,2-c]pyrimidine-1,3(2H,5H)-dione]: less than 10 nM.

These data come from US20240158412A1 (Faxian Therapeutics, LLC, priority 2021, published 2024).
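Further: fluorescence intensity readout of USP7 enzymatic activity, reaction incubated 90 min at room temperature.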
